{"source": "patent US6548450B1", "about": "“Tetrazolinone derivatives” (Nihon Bayer Agrochem, K.K., priority 1999, dated 2003)", "test_system": "paddy field weeds", "test": "Test for herbicidal effect against paddy field weeds", "type": "in vivo", "details": "application rate of 0.5 kg/ha, applied to the surface of the water 5 days after rice transplantation, examined after 3 weeks, greenhouse pot", "procedure": "Test for Herbicidal Effect Against Paddy Field Weeds\nPreparation of formulation of the active compound\nCarrier: Acetone 5 parts by weight\nEmulsifier: Benzyloxypolyglycolether 1 part by weight\nA formulation of the active compound is obtained as an emulsion by mixing 1 part by weight of the active compound with the above-mentioned amount of carrier and emulsifier. A prescribed amount of said formulation is diluted with water to prepare a formulation for testing.\nIn a greenhouse 3 seedlings of paddy rice (cultivar: Nipponbare) of 2.5 leafstage (15 cm tall) were transplanted in a 500 cm^2 pot filled with paddy field soil. Then seeds of barnyard grass, smallflower, bulrush, monochoria and broad-leaved weeds (common false pimpernel, Indian toothcup, long stemmed water wort, Ammannia multiflora Roxb., Dopatrium junceum Hammilt etc.) were sown and water was poured on the soil to a depth of about 2-3 cm.\n5 days after the rice transplantation a formulation of each active compound prepared according to the aforementioned preparation method was applied to the surface of the water. A water depth of 3 cm was maintained. The herbicidal effect was examined after 3 weeks from the treatment. The herbicidal effect was rated as 100% in the case of complete death and as 0% in the case of no herbicidal effect."}
{"smiles": "CC(C)N(C(=O)n1nnn([C@@H](C)c2ccccc2)c1=O)c1ccccc1", "note": "[compound 3, 1-((S)-α-methylbenzyl)-4-(N-isopropyl-N-phenylcarbamoyl)-5(4H)-tetrazolinone]", "values": [{"measurement": "herbicidal effect against paddy field weeds", "result": "sufficient herbicidal effect"}]}
